In paper PMC4821887, “Identification of chemicals that mimic transcriptional changes associated with autism, brain aging and neurodegeneration” (Nature Communications, 2016):

Tested on: mouse cortical cultures
Assay: RNA-seq differential expression (DESeq) against matched vehicle
Type: cell-based
Parameters: key to MeanFenamidone Bcl11b / MeanFenamidone Slc12a4 / MeanFenamidone Abca1 / MeanFenamidone Hmox1 / MeanFenamidone Il1rap / MeanFenamidone Cyba / MeanFenamidone Narf / MeanFenamidone Bnip3 / MeanFenamidone Amotl2 / MeanFenamidone Gad2 / MeanFenamidone Vsnl1 / MeanFenamidone Fam178a: DESeq mean of counts over RefSeq exons
Experimental: Figure 4 Cluster 2 chemicals alter expression of a common set of genes. […] RNA-seq was performed in quadruplicate after treating cortical cultures with fenamidone (10 μM) or pyraclostrobin (0.1 μM) for 24 h (n=3 biological replicates) and compared with matched vehicle controls using DESeq to detect differentially expressed genes, listed in Supplementary Data 4.
Cultures were treated with the non-cytotoxic dose of each chemical, by exchanging half of the original medium with chemicals at 2 × concentration in prewarmed feeding medium, on DIV 7 for 24 h in 12-well plates at a density of 5 × 10^5 cells per well. RNA was isolated using RNeasy plus mini kit (Cat. #74134, Qiagen). […]. Samples were further assessed for quality using either an Agilent Bioanalyzer 2100 or TapeStation 2200 to obtain a RIN. RIN values exceeding 7 were used for sequencing. RNA samples were used to generate and barcode complementary DNA libraries using the TruSeq RNA Library Preparation Kit at the UNC High Throughput Sequencing Facility. Pools of 24 multiplexed samples were sequenced per lane on an Illumina HiSeq 2500 using 50-bp paired-end reads.
RNA-seq reads were filtered using TagDust and aligned to the reference mouse genome (mm9) with TopHat using default parameters. Reads aligning to ribosomal RNA genes were removed. Transcript abundance was estimated by computing Reads per kilobase per million mapped reads (RPKM) using RefSeq gene models aggregated by gene symbol. For differential expression analyses, raw counts over RefSeq exons were used, and then were compared across samples using DESeq[62].

Structure (SMILES): CSC1=N[C@@](C)(c2ccccc2)C(=O)N1Nc1ccccc1 [fenamidone]
- MeanFenamidone (gene Dclk1): 2436.98
- log2FoldChange (gene Dclk1): -1.095
- MeanFenamidone (gene Dcxr): 235.507
- log2FoldChange (gene Dcxr): 3.058
- MeanFenamidone (gene Diras1): 170.873
- log2FoldChange (gene Diras1): -1.25
- MeanFenamidone (gene Dlg2): 695.294
- log2FoldChange (gene Dlg2): -1.3121
- MeanFenamidone Dlx1as (gene Dlx1as, DESeq mean, 4 reps): 22.8822
- log2FoldChange Dlx1as (gene Dlx1as, vs vehicle, 4 reps): -2.397
- MeanFenamidone (gene Dnaja1): 313.407
- log2FoldChange (gene Dnaja1): -1.061
- MeanFenamidone Dnm3 (gene Dnm3, DESeq mean, 4 reps): 187.1
- log2FoldChange Dnm3 (gene Dnm3, vs vehicle, 4 reps): -1.706
- MeanFenamidone Dpp10 (gene Dpp10, DESeq mean, 4 reps): 62.8613
- log2FoldChange Dpp10 (gene Dpp10, vs vehicle, 4 reps): -1.776
- MeanFenamidone Dzank1 (gene Dzank1, DESeq mean, 4 reps): 112.179
- log2FoldChange Dzank1 (gene Dzank1, vs vehicle, 4 reps): -1.428
- MeanFenamidone Eda2r (gene Eda2r, DESeq mean, 4 reps): 436.944
- log2FoldChange Eda2r (gene Eda2r, vs vehicle, 4 reps): 1.783
- MeanFenamidone Efemp1 (gene Efemp1, DESeq mean, 4 reps): 94.4395
- log2FoldChange Efemp1 (gene Efemp1, vs vehicle, 4 reps): 2.414
- MeanFenamidone (gene Egfr): 148.93
- log2FoldChange (gene Egfr): 1.836
- MeanFenamidone Eif4ebp1 (gene Eif4ebp1, DESeq mean, 4 reps): 125.436
- log2FoldChange Eif4ebp1 (gene Eif4ebp1, vs vehicle, 4 reps): 2.511
- MeanFenamidone Elavl2 (gene Elavl2, DESeq mean, 4 reps): 207.006
- log2FoldChange Elavl2 (gene Elavl2, vs vehicle, 4 reps): -1.527
- MeanFenamidone Elovl1 (gene Elovl1, DESeq mean, 4 reps): 104.754
- log2FoldChange Elovl1 (gene Elovl1, vs vehicle, 4 reps): 2.586
- MeanFenamidone (gene Enox1): 25.4463
- log2FoldChange (gene Enox1): -1.757
- MeanFenamidone (gene Epas1): 154.593
- log2FoldChange (gene Epas1): 2.42
- MeanFenamidone Ephx1 (gene Ephx1, DESeq mean, 4 reps): 789.724
- log2FoldChange Ephx1 (gene Ephx1, vs vehicle, 4 reps): 1.959
- MeanFenamidone (gene Epm2aip1): 711.569
- log2FoldChange (gene Epm2aip1): -0.9776
- MeanFenamidone (gene Etfb): 102.831
- log2FoldChange (gene Etfb): 1.903
- MeanFenamidone (gene Evc): 45.1413
- log2FoldChange (gene Evc): 1.984
- MeanFenamidone F2r (gene F2r, DESeq mean, 4 reps): 1216.46
- log2FoldChange F2r (gene F2r, vs vehicle, 4 reps): 2.012
- MeanFenamidone F3 (gene F3, DESeq mean, 4 reps): 324.561
- log2FoldChange F3 (gene F3, vs vehicle, 4 reps): 2.464
- MeanFenamidone (gene Fam78b): 119.127
- log2FoldChange (gene Fam78b): -1.289
- MeanFenamidone Fam163b (gene Fam163b, DESeq mean, 4 reps): 135.664
- log2FoldChange Fam163b (gene Fam163b, vs vehicle, 4 reps): -1.491
- MeanFenamidone Fam178a (gene Fam178a, DESeq mean, 4 reps): 780.387
- log2FoldChange Fam178a (gene Fam178a, vs vehicle, 4 reps): 1.493
- MeanFenamidone Fat1 (gene Fat1, DESeq mean, 4 reps): 2188.76
- log2FoldChange Fat1 (gene Fat1, vs vehicle, 4 reps): 1.677
- MeanFenamidone Fbn1 (gene Fbn1, DESeq mean, 4 reps): 159.478
- log2FoldChange Fbn1 (gene Fbn1, vs vehicle, 4 reps): 2.303
- MeanFenamidone Fbxo9 (gene Fbxo9, DESeq mean, 4 reps): 32.2944
- log2FoldChange Fbxo9 (gene Fbxo9, vs vehicle, 4 reps): -2.181
- MeanFenamidone Fermt2 (gene Fermt2, DESeq mean, 4 reps): 437.255
- log2FoldChange Fermt2 (gene Fermt2, vs vehicle, 4 reps): 1.474
- MeanFenamidone (gene Fgf13): 224.473
- log2FoldChange (gene Fgf13): -1.202
- MeanFenamidone Fgfr3 (gene Fgfr3, DESeq mean, 4 reps): 309.362
- log2FoldChange Fgfr3 (gene Fgfr3, vs vehicle, 4 reps): 1.548
- MeanFenamidone Fkbp9 (gene Fkbp9, DESeq mean, 4 reps): 763.489
- log2FoldChange Fkbp9 (gene Fkbp9, vs vehicle, 4 reps): 1.78
- MeanFenamidone Flna (gene Flna, DESeq mean, 4 reps): 4335.97
- log2FoldChange Flna (gene Flna, vs vehicle, 4 reps): 1.783
- MeanFenamidone Flnb (gene Flnb, DESeq mean, 4 reps): 1183.24
- log2FoldChange Flnb (gene Flnb, vs vehicle, 4 reps): 2.364
- MeanFenamidone Flnc (gene Flnc, DESeq mean, 4 reps): 270.515
- log2FoldChange Flnc (gene Flnc, vs vehicle, 4 reps): 3.121
- MeanFenamidone Fn1 (gene Fn1, DESeq mean, 4 reps): 2242.75
- log2FoldChange Fn1 (gene Fn1, vs vehicle, 4 reps): 2.874
- MeanFenamidone (gene Fzd7): 201.665
- log2FoldChange (gene Fzd7): 1.705
- MeanFenamidone Gad1 (gene Gad1, DESeq mean, 4 reps): 102.047
- log2FoldChange Gad1 (gene Gad1, vs vehicle, 4 reps): -2.011
- MeanFenamidone Gad2 (gene Gad2, DESeq mean, 4 reps): 49.2241
- log2FoldChange Gad2 (gene Gad2, vs vehicle, 4 reps): -2.6503
- MeanFenamidone (gene Gas6): 1188.11
- log2FoldChange (gene Gas6): 1.393
- MeanFenamidone (gene Gas7): 704.19
- log2FoldChange (gene Gas7): -1.128
- MeanFenamidone Gdf15 (gene Gdf15, DESeq mean, 4 reps): 107.196
- log2FoldChange Gdf15 (gene Gdf15, vs vehicle, 4 reps): 3.431
- MeanFenamidone (gene Glis2): 157.775
- log2FoldChange (gene Glis2): 1.455
- MeanFenamidone Gls (gene Gls, DESeq mean, 4 reps): 297.391
- log2FoldChange Gls (gene Gls, vs vehicle, 4 reps): -1.569
- MeanFenamidone Gm5424 (gene Gm5424, DESeq mean, 4 reps): 1293.84
- log2FoldChange Gm5424 (gene Gm5424, vs vehicle, 4 reps): 2.267
- MeanFenamidone (gene Gng2): 1878.98
- log2FoldChange (gene Gng2): -1.047
- MeanFenamidone Gpnmb (gene Gpnmb, DESeq mean, 4 reps): 552.991
- log2FoldChange Gpnmb (gene Gpnmb, vs vehicle, 4 reps): 3.791
- MeanFenamidone (gene Gpr22): 61.8379
- log2FoldChange (gene Gpr22): -1.6935
- MeanFenamidone Gpr88 (gene Gpr88, DESeq mean, 4 reps): 81.4648
- log2FoldChange Gpr88 (gene Gpr88, vs vehicle, 4 reps): -2.268
- MeanFenamidone Gpx1 (gene Gpx1, DESeq mean, 4 reps): 550.81
- log2FoldChange Gpx1 (gene Gpx1, vs vehicle, 4 reps): 1.571
- MeanFenamidone Grik3 (gene Grik3, DESeq mean, 4 reps): 96.3695
- log2FoldChange Grik3 (gene Grik3, vs vehicle, 4 reps): -2.234
- MeanFenamidone (DESeq mean normalized counts) (gene Grin1os, Fenamidone, 4 reps, vs matched vehicle): 76.6399
- MeanFenamidone (gene Grm5): 468.182
- log2FoldChange (gene Grm5): -1.139
- MeanFenamidone Gss (gene Gss, DESeq mean, 4 reps): 95.0873
- log2FoldChange Gss (gene Gss, vs vehicle, 4 reps): 2.127
- MeanFenamidone Gstm1 (gene Gstm1, DESeq mean, 4 reps): 533.415
- log2FoldChange Gstm1 (gene Gstm1, vs vehicle, 4 reps): 2.03
- MeanFenamidone (gene Gtse1): 113.042
- log2FoldChange (gene Gtse1): 1.636
- MeanFenamidone Gxylt2 (gene Gxylt2, DESeq mean, 4 reps): 58.8169
- log2FoldChange Gxylt2 (gene Gxylt2, vs vehicle, 4 reps): 2.562
- MeanFenamidone Hbegf (gene Hbegf, DESeq mean, 4 reps): 726.667
- log2FoldChange Hbegf (gene Hbegf, vs vehicle, 4 reps): 2.744
- MeanFenamidone (gene Hivep2): 554.938
- log2FoldChange (gene Hivep2): -0.989
- MeanFenamidone Hmox1 (gene Hmox1, DESeq mean, 4 reps): 1318.42
- log2FoldChange Hmox1 (gene Hmox1, vs vehicle, 4 reps): 3.72
- MeanFenamidone Hspg2 (gene Hspg2, DESeq mean, 4 reps): 1082.79
- log2FoldChange Hspg2 (gene Hspg2, vs vehicle, 4 reps): 3.326
- MeanFenamidone Icam1 (gene Icam1, DESeq mean, 4 reps): 359.44
- log2FoldChange Icam1 (gene Icam1, vs vehicle, 4 reps): 2.082
- MeanFenamidone Igdcc4 (gene Igdcc4, DESeq mean, 4 reps): 745.33
- log2FoldChange Igdcc4 (gene Igdcc4, vs vehicle, 4 reps): 1.594
- MeanFenamidone Il1rap (gene Il1rap, DESeq mean, 4 reps): 123.358
- log2FoldChange Il1rap (gene Il1rap, vs vehicle, 4 reps): 1.873
- MeanFenamidone Inf2 (gene Inf2, DESeq mean, 4 reps): 157.523
- log2FoldChange Inf2 (gene Inf2, vs vehicle, 4 reps): 1.741
- MeanFenamidone (gene Irs1): 506.425
- log2FoldChange (gene Irs1): 1.154
- MeanFenamidone Itga3 (gene Itga3, DESeq mean, 4 reps): 452.545
- log2FoldChange Itga3 (gene Itga3, vs vehicle, 4 reps): 2.403
- MeanFenamidone Itga5 (gene Itga5, DESeq mean, 4 reps): 86.8768
- log2FoldChange Itga5 (gene Itga5, vs vehicle, 4 reps): 3.801
- MeanFenamidone Itga6 (gene Itga6, DESeq mean, 4 reps): 547.54
- log2FoldChange Itga6 (gene Itga6, vs vehicle, 4 reps): 1.506
- MeanFenamidone Itga7 (gene Itga7, DESeq mean, 4 reps): 82.7144
- log2FoldChange Itga7 (gene Itga7, vs vehicle, 4 reps): 2.577
- MeanFenamidone Itgav (gene Itgav, DESeq mean, 4 reps): 659.409
- log2FoldChange Itgav (gene Itgav, vs vehicle, 4 reps): 1.938
- MeanFenamidone Itgb1 (gene Itgb1, DESeq mean, 4 reps): 2073.15
- log2FoldChange Itgb1 (gene Itgb1, vs vehicle, 4 reps): 1.665
- MeanFenamidone (gene Kcnc2): 16.7005
- log2FoldChange (gene Kcnc2): -1.836
- MeanFenamidone Kcnh3 (gene Kcnh3, DESeq mean, 4 reps): 28.6602
- log2FoldChange Kcnh3 (gene Kcnh3, vs vehicle, 4 reps): -2.172
- MeanFenamidone Kcnv1 (gene Kcnv1, DESeq mean, 4 reps): 52.8142
- log2FoldChange Kcnv1 (gene Kcnv1, vs vehicle, 4 reps): -2.08
- MeanFenamidone (gene Kctd12): 687.782
- log2FoldChange (gene Kctd12): -1.125
- MeanFenamidone Kdelc2 (gene Kdelc2, DESeq mean, 4 reps): 146.187
- log2FoldChange Kdelc2 (gene Kdelc2, vs vehicle, 4 reps): 1.909
- MeanFenamidone Kif1c (gene Kif1c, DESeq mean, 4 reps): 782.878
- log2FoldChange Kif1c (gene Kif1c, vs vehicle, 4 reps): 2.167
